Key:
[1] = Relative quantification of urinary aPM (UPLC-QTOF-MS, creatinine-normalized) after controlled α-pinene inhalation; assay type: in vivo, human; conditions: for Proportion (observed) after α-pinene inhalation: share of total response of 22 aPM, averaged over post-exposure samples
Description: (§1) Briefly, for controlled inhalation experiments, eight healthy volunteers were exposed to α-pinene in a custom-built exposure chamber via inhalation from a 15 ml conical tube, containing approximately 100 μl α-pinene, for a duration of 10 min. Urine samples were collected before exposure (0 h) and 0.5, 1, 2, 3, and 4 h after exposure. […] Urine samples were collected both before (0 h) or 4 h after exposure. After collection, the urine samples were centrifuged and stored at −80 °C before analysis. […] Demographic information, including sex, age and race, can be found in Table S1.
(§2) Briefly, after 1:10 dilution, urine samples were separated using an Acquity I-Class UPLC system with an Acquity Premier CSH C18 UPLC column (Waters, MA) with a gradient comprising 0.1 % formic acid in water as the solvent A and 0.1 % formic acid in acetonitrile as the solvent B. Mass Spectrometry Elevated Energy (MS^E) data were collected using a Waters Synapt XS MS (Waters, MA) with an ESI ion source operated in the negative mode. Subsequent analyses of raw files were performed using UNIFI 1.9 and Progenesis QI 3.0 (both from Waters, MA). To validate LC-MS performance, one quality control (QC) sample, prepared by pooling equal amount of each urine sample, was injected after every ten urine sample injections.
(§3) Relative quantification of aPM was performed based on the peak responses normalized to urinary creatinine levels. Urinary creatinine levels were measured using an Ace Axcel Clinical Chemistry System with ACE Creatinine Reagent from Alfa Wassermann (West Caldwell, NJ). Statistical analyses, including ANOVA and Student’s t-tests, were conducted using SAS 9.4 (SAS Institute, NC) to explore differences in aPM across various time points. […] A threshold for statistical significance was defined as p < 0.05.

[2] = Kinetic modeling of urinary aPM with a pseudo one-compartment nonlinear mixed-effects model after α-pinene inhalation; assay type: in vivo, human; conditions: for F (%), fraction of metabolite generated from absorbed α-pinene: human urine after 10 min α-pinene inhalation, F normalized to the sum of 22 detected metabolites
Description: In this equation, i represents the participant index, j the urine sample index, C the creatinine-normalized peak response, and t the sample collection time ( h).Ka denotes the first-order generation constant ( h^−1 ), and Ke denotes the first-order elimination rate constant h^−1 . F indicates the fraction of specific aPM relative to absorbed α-pinene. The variables D and V refer to the absorbed α-pinene amount and the distribution volume, respectively. Because input data were derived from relative quantification, absolute values of D , V , and F were not available. For simplicity, D and V were fixed at 100 and 1, respectively, and F was normalized relative to the sum of all detected aPM. The error term ε accounts for residual variation.

[3] = aPM in mouse urine after i.p. injection of (+)-α-pinene or (−)-α-pinene; assay type: in vivo, mice (C57BL/6); conditions: for R/(R+S): mouse urine, enantiomer specificity; for Detection in mouse urine: after exposure to either α-pinene enantiomer
Description: Mouse urine was collected after exposures to either (+) or (−) α-pinene to distinguish between metabolites of different enantiomers of α-pinene. Adult male mice (C57BL/6) were intraperitoneally administered with 50 mg/kg body weight of (+)-α-pinene or (−)-α-pinene dissolved in 100 μl sterile saline with 1 % Tween 80.

[4] = Urinary aPM after 4 h greenness (forest) exposure; assay type: in vivo, human; design: Maximum response: unit not given here; conditions: for Frequency of occurrence / Maximum response: human urine, greenness exposure; for Proportion (observed) after greenness exposure: share of total aPM response
Description: as §1, §2, §3

[5] = human urine after α-pinene inhalation
[6] = human urine after α-pinene inhalation, pseudo one-compartment model
[7] = mouse urine collected overnight, 50 mg/kg i.p. (+)-α-pinene, 50 mg/kg
[8] = mouse urine collected overnight, 50 mg/kg i.p. (−)-α-pinene, 50 mg/kg
[9] = male, C57BL/6, mouse, in vivo, ip, 50 mg/kg

Row | Compound | Frequency of occurrence (percentage of samples with analyte detected) [1, 5] [%] | Maximum response (highest peak response across all urine samples) [1, 5] | Observed Tmax [1, 5] [h] | Proportion (observed) after α-pinene inhalation [1] [%] | F (%), fraction of metabolite generated from absorbed α-pinene [2] [%] | Elimination t1/2 [2, 6] [h] | Ka, first-order generation constant [2, 6] [h⁻¹] | Ke, first-order elimination rate constant [2, 6] [h⁻¹] | (1R)-(+)-α-Pinene (Average), proportion of aPM in mouse urine [3, 7] [%] | (1S)-(−)-α-Pinene (Average), proportion of aPM in mouse urine [3, 8] [%] | R/(R+S) [3] [%] | Frequency of occurrence [4] [%] | Maximum response [4] | Proportion (observed) after greenness exposure [4] [%] | other results
1 | CC1(C)C2CC1C(OC1OC(C(=O)O)C(O)C(O)C1O)C=C2C(=O)O (single isomer, unassigned) [aPM5d, Myrtenic acid-4-O-GlcA] | 81.3 | 5115 | 1 | 0.4 | 0.27 ± 0.09 | 1.31 ± 0.46 | 1.33 ± 0.51 | 0.53 ± 0.19 | 0.2 | 0.0 | 100 | 0.0 |  |  | 
2 | CC1(C)C2CCC(C(=O)OC3OC(C(=O)O)C(O)C(O)C3O)C1C2 (single isomer, unassigned) [aPM4d, Dihydromyrtenic acid-GlcA] | 97.9 | 183468 | 1 |  | 13.03 ± 5.57 | 1.01 ± 0.40 | 0.73 ± 0.29 | 0.68 ± 0.27 | 0.0 | 0.2 | 0.0 | 68.8 | 7375 | 9.4 | Detection in mouse urine [3]: present in murine samples
3 | α-Pinene-O-GlcA [aPM2a] |  |  | 0.5 |  | 0.51 ± 0.12 | 0.56 ± 0.08 |  | 1.23 ± 0.17 |  |  |  |  |  | 0.9 | 
4 | Myrtenic acid-4-O-7-O-GlcA [aPM8] | 83.3 | 13644 | 1 | 0.8 | 0.65 ± 0.31 | 0.97 ± 0.42 | 0.73 ± 0.33 | 0.71 ± 0.31 |  |  |  | 0.0 |  |  | (1R)-(+)-α-Pinene (Average), proportion of aPM in mouse urine ([3]; mouse urine collected overnight, 50 mg/kg i.p. (+)-α-pinene): 0.0%; (1S)-(−)-α-Pinene (Average), proportion of aPM in mouse urine ([3]; mouse urine collected overnight, 50 mg/kg i.p. (−)-α-pinene): 0.0%
5 | CC1(C)C2CCC(C(=O)OC3OC(C(=O)O)C(O)C(O)C3O)C1C2 (single isomer, unassigned) [aPM4b, Dihydromyrtenic acid-GlcA] | 81.3 | 14109 | 1 | 1.2 | 1.47 ± 0.63 | 0.79 ± 0.26 | 1.34 ± 0.47 | 0.87 ± 0.28 | 0.0 | 4.2 | 0.0 | 0.0 |  |  | 
6 | CC1(C)C2CC1C(OC1OC(C(=O)O)C(O)C(O)C1O)C=C2C(=O)O (single isomer, unassigned) [aPM5e, Myrtenic acid-4-O-GlcA] | 72.9 |  | 1 | 0.3 | 0.38 ± 0.16 | 0.76 ± 0.28 | 0.91 ± 0.36 | 0.91 ± 0.34 | 0.0 | 0.3 | 0 | 25.0 | 93 | 1.0 | 
7 | CC1(C)C2CC1C(C(=O)O)=CC2=O (stereo not shown) [aPM1, Myrtenic acid-4-one] | 95.8 | 17385 |  | 1.8 | 1.15 ± 0.39 |  | 1.25 ± 0.43 |  |  |  |  | 31.3 | 3544 | 1.3 | Tmax ([1]; inhaled or intranasal, human urine after α-pinene inhalation, read-out: Observed Tmax): 1 h; half-life ([2]; inhaled or intranasal, human urine after α-pinene inhalation, pseudo one-compartment model, read-out: Elimination t1/2 (converted)): 1.2 ± 0.38 h; k el ([2]; inhaled or intranasal, human urine after α-pinene inhalation, pseudo one-compartment model, read-out: Ke, first-order elimination rate constant (converted)): 0.000161 s⁻¹; (1R)-(+)-α-Pinene (Average), proportion of aPM in mouse urine [3, 9]: 0.1%; (1S)-(−)-α-Pinene (Average), proportion of aPM in mouse urine [3, 9]: 0.8%
8 | CC1(C)C2CC1C(OC1OC(C(=O)O)C(O)C(O)C1O)C=C2C(=O)O (single isomer, unassigned) [aPM5a, Myrtenic acid-4-O-GlcA] | 79.2 | 4787 | 1 | 0.3 | 0.25 ± 0.09 | 1.00 ± 0.38 | 1.64 ± 0.77 | 0.70 ± 0.27 | 0.0 | 0.1 | 0 | 0.0 |  |  | 
9 | CC1(C)C2CCC(C(=O)OC3OC(C(=O)O)C(O)C(O)C3O)C1C2 (single isomer, unassigned) [aPM4e, Dihydromyrtenic acid-GlcA] | 95.8 | 241782 | 1 |  | 18.14 ± 6.52 | 0.99 ± 0.33 | 1.26 ± 0.50 | 0.70 ± 0.24 | 0.1 | 0.2 | 24.1 | 93.8 | 27114 | 67.8 | Detection in mouse urine [3]: present in murine samples
10 | CC1(C)C2CC1C(OC1OC(C(=O)O)C(O)C(O)C1O)C=C2C(=O)O (single isomer, unassigned) [aPM5f, Myrtenic acid-4-O-GlcA] | 87.5 | 5543 | 1 | 0.5 | 0.29 ± 0.12 | 0.95 ± 0.37 | 1.53 ± 0.71 | 0.73 ± 0.29 | 0.0 | 0.0 |  | 0.0 |  |  | 
11 | CC1(C)C2CC1C(OC1OC(C(=O)O)C(O)C(O)C1O)C=C2C(=O)O (single isomer, unassigned) [aPM5b, Myrtenic acid-4-O-GlcA] | 91.7 | 22121 | 1 | 1.6 | 1.46 ± 0.57 | 0.87 ± 0.34 | 1.74 ± 0.84 | 0.80 ± 0.31 | 0.0 | 0.0 |  | 6.3 | 89 | 0.0 | 

Source: paper PMC12477777, “Human exposure to green spaces and monoterpenes: discovery and use of α-pinene metabolites as biomarkers” (Environment international, 2025)
